Measurements taken from patent publication US20080076824A1, “Compounds That Inhibit Replication Of Human Immunodeficiency Virus” (priority 2004, published 2008).
Where a name gives a salt, the structure may show the parent alone. Read-outs that look alike come from different tables or passages of the source. Residues, ends and D or L forms follow the SMILES beside them.

Columns and labels:
HIV-1 (IIIB) = assay: microbe, parasite or virus in culture; settings: Human immunodeficiency virus 1, IIIB, CCRF-CEM
human PBMC = assay: Mitogenic activity assay, [3H]dThd incorporation in human PBMC with or without PHA; type: cell-based; settings: concentrations up to 200 μg/ml, absence of PHA
Protocol: The mitogenic activity assay was conducted as follows. Human PBMC were isolated from buffy coats and brought in RPMI-1640 cell culture medium supplemented with 10% FCS and 2 mM L-glutamine. The cell cultures were exposed to several concentrations of the test compounds for 3 days in the absence or presence of PHA (phytohemagglutinin) (Murex Biotech Ltd., Dartford, UK) at 2 μg/ml. Subsequently, 0.25 μCi [CH3^−3H]dThd was added and, after 20 hr incubation at 37° C., the cells were precipitated in the presence of 10% TCA and the precipitate was washed twice with 10% TCA, twice with 5% TCA and once with 70% ethanol. The precipitate, containing [^3H]DNA, was then examined for radioactivity in a liquid scintillation counter.

[1] = Conversion of radiolabeled G-NH2 to modified G-NH2 by fetal bovine sera; type: in vitro ADME; settings: 10% fetal bovine sera in PBS, 37° C.
Protocol: Several lots of human sera and fetal bovine sera were analyzed for their ability to convert G-NH2 to modified G-NH2. Radiolabeled cation exchange HPLC purified G-NH2 (see EXAMPLE 3) was incubated with the various sera at a 10% final concentration in PBS at 37° C. for 15 minutes and 1, 6, 24, or 72 hours. Subsequently, the amount of radiolabeled modified G-NH2 was evaluated using the cation exchange HPLC approach described above.

Reovirus-1 = settings: read-out: Minimum inhibitory concentration Reovirus-1; Vero; reduces virus-induced cytopathogenicity by 50%
Parainfluenza-3 virus = settings: read-out: Minimum inhibitory concentration Parainfluenza-3 virus; Vero; reduces virus-induced cytopathogenicity by 50%
Sindbis virus = settings: read-out: Minimum inhibitory concentration Sindbis virus; Vero; reduces virus-induced cytopathogenicity by 50%
Punta Toro virus = settings: read-out: Minimum inhibitory concentration Punta Toro virus; Vero; reduces virus-induced cytopathogenicity by 50%
Coxsackie virus B4 = assay: Antiviral activity in Vero cell cultures, Coxsackie virus B4; type: cell-based; settings: reduces virus-induced cytopathogenicity by 50%, read-out: Minimum inhibitory concentration Coxsackie virus B4
Protocol: The cytotoxicity and antiviral activity of various concentrations of G-NH2 and GPG-NH2 were evaluated in cell cultures that were infected with various types of viruses. Conventional host cell culture, viral infection, and infectivity analysis for each different type of cell and virus were followed. Compounds that were known to inhibit replication of the particular types of viruses analyzed were used as controls.

HIV-2 (EHO) = settings: read-out: EC50 HIV-2 EHO; CEM cell cultures, syncytia formation
Protocol: (§1) Human T-lymphocytic CEM cells (4.5×10^5 cells per ml) were suspended in fresh cell culture medium and infected with HIV-1 (IIIB and NL4.3) or HIV-2 (ROD or EHO) at 100 CCID50 (1 CCID50 being the virus dose infective for 50% of the cell cultures) per ml of cell suspension. Then, 100 μl of the infected cell suspension were transferred to microplate wells, mixed with 100 μl of appropriate (freshly prepared) dilutions of the test compounds (i.e., at final concentrations of […]), and were further incubated at 37° C. After 4 to 5 days, giant cell formation was recorded microscopically in the CEM cell cultures.

HIV-1 (NL4.3) = settings: read-out: EC50 HIV-1 NL3.4; CEM cell cultures, syncytia formation
Protocol: as §1

Vaccinia virus = settings: read-out: Minimum inhibitory concentration Vaccinia virus; HEL; reduces virus-induced cytopathogenicity by 50%
HIV-1 = settings: for anti-HIV activity in the presence of IlePyr: 200 and 500 μM IlePyr, in words
[2] = Conversion of G-NH2 to modified G-NH2 by pig plasma (cation exchange HPLC); type: in vitro ADME; settings: 37° C.
Protocol: Various concentrations of G-NH2 were mixed with either 90% pig plasma or 90% dialyzed pig plasma in PBS and the reactions were conducted at 37° C. for 24 hours. Subsequently, aliquots of the mixtures were separated by cation exchange HPLC, as described previously, and the conversion of G-NH2 to modified G-NH2 was evaluated. […] Saturation of the enzyme activity of cofactor(s) in pig plasma (90% in PBS) occurred between 1,000 μM and 10,000 μM G-NH2.

[3] = Conversion of G-NH2 to Metabolite X in 10% pig serum with and without reducing agents; type: in vitro ADME; settings: absence of GTT, NAC and DTT
Protocol: In another set of experiments, the conversion of GNH2 to modified glycinamide (Metabolite X) in pig serum (10%) was monitored over time in the presence and absence of differing concentrations (e.g., 40 mM, 10 mM, 4 mM) of reducing agents (glutathione (GTT), N-acetyl cysteine (NAC), and dithiothreitol (DTT)). […] See Han et al., Bull. Korean. Chem. Soc., 17, 659-661 (1996). In the absence of GTT, NAC and DTT, almost 100% coversion to Metabolite X was seen.

[4] = tested on: Herpes simplex virus-1 (KOS); settings: read-out: Minimum inhibitory concentration Herpes simplex virus-1 (KOS); HEL; reduces virus-induced cytopathogenicity by 50%
[5] = tested on: HIV-1 laboratory strains and clinical isolates; settings: wide variety of HIV-1 laboratory strains and clinical isolates; cited from earlier work

For NC(=O)C(N)O (stereo not drawn) [AlphaHGA, α-Hydroxy-glycinamide hydrochloride], the EC50 (HIV-1 (IIIB); read-out: EC50 (CEM) HIV-1 (IIIB)) was 40 ± 8.2 µM, the EC50 (HIV-1 (IIIB); read-out: EC50 (CEM) HIV-1(IIIB)) was 43 ± 5.8 µM and the “mitogenic activity against human PBMCs” value (human PBMC) was “non-mitogenic”.

With NCC(N)=O [G-NH2, glycinamide] the “conversion of G-NH2 to modified G-NH2” value ([1]; 6 hours) was 6-10%, the “conversion of G-NH2 to modified G-NH2” value ([1]; 24 hours) was 18-32% and the EC50 (Reovirus-1) was greater than 2000 µM. It also gave an EC50 (Parainfluenza-3 virus) greater than 2000 µM, an EC50 (Sindbis virus) greater than 2000 µM and an EC50 (Punta Toro virus) greater than 2000 µM. The EC50 (Coxsackie virus B4) was greater than 2000 µM, the EC50 (HIV-2 (EHO)) was 37 ± 5.8 µM and the EC50 (HIV-1 (NL4.3)) was 45 ± 7.1 µM. The EC50 (Vaccinia virus) was greater than 2000 µM, the “anti-HIV activity in the presence of IlePyr” value (HIV-1) was “fully preserved its anti-HIV activity” and the EC50 (HIV-1; CEM cell cultures, presence of 200 and 500 μM of IlePyr) was 35 to 43 µM. For the same molecule, the “conversion to modified G-NH2 (24 hr) (percent conversion) Pig plasma” value (shortened to “conversion … (percent conversion) Pig plasma”) ([2]; 18 μM G-NH2, plasma 90% in PBS) was 99.7%, the “conversion … (percent conversion) Pig plasma” value ([2]; 100 μM G-NH2, plasma 90% in PBS) was 99.7% and the “conversion … (percent conversion) Pig plasma” value ([2]; 1,000 μM G-NH2, plasma 90% in PBS) was 98.7%. For the same molecule, the “conversion … (percent conversion) Pig plasma” value ([2]; 10,000 μM G-NH2, plasma 90% in PBS) was “˜24.5%”, the “conversion to Metabolite X” value [3] was roughly 100% and the EC50 [4] was greater than 2000 µM.

Work on NCC(=O)N1CCC[C@H]1C(=O)NCC(N)=O [GPG-NH2, glycylprolylglycinamide] (H-Gly-Pro-Gly-NH2) yielded an EC50 (Reovirus-1) greater than 400 µM, an EC50 (Parainfluenza-3 virus) greater than 400 µM and an EC50 (Sindbis virus) greater than 400 µM. For the same molecule, the EC50 (Punta Toro virus) was greater than 400 µM, the EC50 (Coxsackie virus B4) was greater than 400 µM and the EC50 (HIV-2 (EHO)) was 42 ± 14 µM. For the same molecule, the EC50 (HIV-1 (NL4.3)) was 50 µM, the EC50 (Vaccinia virus) was greater than 400 µM and the “anti-HIV activity in the presence of IlePyr” value (HIV-1) was “markedly lost its inhibitory activity”. For the same molecule, the EC50 [4] was greater than 400 µM and the “concentration range blocking HIV-1” value [5] was 2 to 40 µM.
